Source: US9102621B2, “Acyl sulfonamide compounds” (Pfizer Limited, priority 2010, dated 2015)
pIC50: −log10 of the molar value. Structures can show the parent of a compound that is named as a salt.

What follows are compounds tested against T1, Nav1.7 (or SCN9A) channel (Homo sapiens, UniProt Q15858) (assay: Nav1.7 (hSCN9A) channel block, PatchXpress whole-cell electrophysiology). Details: PatchXpress platform; HEK cells stably transfected with hSCN9A; estimated IC-50 calculated from single point % inhibition at V1/2; read-out: Nav1.7 EIC50.
T1 construct: expressed in transfected cells
Assay type: cell-based
Procedure: The ability of the compounds of formula (I) to block the Nav1.7 (or SCN9A) channel were measured using the assay described below.
Human Embryonic Kidney (HEK) cells were transfected with an hSCN9A construct using lipofectamine reagent (Invitrogen), using standard techniques. Cells stably expressing the hSCN9A constructs were identified by their resistance to G-418 (400 μg/ml). Clones were screened for expression using the whole-cell voltage-clamp technique.
HEK cells stably transfected with hSCN9A were maintained in DMEM medium supplemented with 10% heat-inactivated fetal bovine serum and 400 μg/ml G-418 in an incubator at 37° C. with a humidified atmosphere of 10% CO2. For HTS, cells were harvested from flasks by trypsinization and replated in an appropriate multi-well plate (typically 96 or 384 wells/plate) such that confluence would be achieved within 24 hours of plating. For electrophysiological studies, cells were removed from the culture flask by brief trypsinization and re-plated at low density onto glass cover slips. Cells were typically used for electrophysiological experiments within 24 to 72 hours after plating.
Cover slips containing HEK cells expressing hSCN9A were placed in a bath on the stage of an inverted microscope and perfused (approximately 1 ml/minutes) with extracellular solution of the following composition: 138 mM NaCl, 2 mM CaCl2, 5.4 mM KCl, 1 mM MgCl2, 10 mM glucose, and 10 mM HEPES, pH 7.4, with NaOH. […] The osmolarity of the extracellular and intracellular solutions was 300 mOsm/kg and 295 mOsm/kg, respectively. All recordings were made at room temperature (22-24° C.) using AXOPATCH 200B amplifiers and PCLAMP software (Axon Instruments, Burlingame, Calif.).
hSCN9A currents in HEK cells were measured using the whole-cell configuration of the patch-clamp technique (Hamill et al., 1981). Uncompensated series resistance was typically 2 to 5 mega ohms and >85% series resistance compensation was routinely achieved. As a result, voltage errors were negligible and no correction was applied. Current records were acquired at 20 to 50 KHz and filtered at 5 to 10 KHz.
HEK cells stably transfected with hSCN9A were viewed under Hoffman contrast optics and placed in front of an array of flow pipes emitting either control or compound-containing extracellular solutions. All compounds were dissolved in dimethyl sulfoxide to make 10 mM stock solutions, which were then diluted into extracellular solution to attain the final concentrations desired. […] The voltage-dependence of inactivation was determined by applying a series of depolarizing prepulses (8 sec long in 10 mV increments) from a negative holding potential. The voltage was then immediately stepped to 0 mV to assess the magnitude of the sodium current. Currents elicited at 0 mV were plotted as a function of prepulse potential to allow estimation of the voltage at which 50% of the channels were inactivated (midpoint of inactivation or V1/2). Compounds were tested for their ability to inhibit hSCN9A sodium channels by activating the channel with a 20 msec voltage step to 0 mV following an 8 second conditioning prepulse to the empirically determined V1/2. Compound effect (% inhibition) was determined by difference in current amplitude before and after application of test compounds. […] Inhibition values <20% and >80% were excluded from the calculation.
Electrophysiological assays were conducted with PatchXpress 7000 hardware and associated software (Molecular Devices Corp). All assay buffers and solutions were identical to those used in conventional whole-cell voltage clamp experiments described above. hSCN9A cells were grown as above to 50%-80% confluency and harvested by trypsinization. Trypsinized cells were washed and resuspended in extracellular buffer at a concentration of 1×10^6 cells/ml. The onboard liquid handling facility of the PatchXpress was used for dispensing cells and application of test compounds. […]

T1 sequence (Q15858 whole entry): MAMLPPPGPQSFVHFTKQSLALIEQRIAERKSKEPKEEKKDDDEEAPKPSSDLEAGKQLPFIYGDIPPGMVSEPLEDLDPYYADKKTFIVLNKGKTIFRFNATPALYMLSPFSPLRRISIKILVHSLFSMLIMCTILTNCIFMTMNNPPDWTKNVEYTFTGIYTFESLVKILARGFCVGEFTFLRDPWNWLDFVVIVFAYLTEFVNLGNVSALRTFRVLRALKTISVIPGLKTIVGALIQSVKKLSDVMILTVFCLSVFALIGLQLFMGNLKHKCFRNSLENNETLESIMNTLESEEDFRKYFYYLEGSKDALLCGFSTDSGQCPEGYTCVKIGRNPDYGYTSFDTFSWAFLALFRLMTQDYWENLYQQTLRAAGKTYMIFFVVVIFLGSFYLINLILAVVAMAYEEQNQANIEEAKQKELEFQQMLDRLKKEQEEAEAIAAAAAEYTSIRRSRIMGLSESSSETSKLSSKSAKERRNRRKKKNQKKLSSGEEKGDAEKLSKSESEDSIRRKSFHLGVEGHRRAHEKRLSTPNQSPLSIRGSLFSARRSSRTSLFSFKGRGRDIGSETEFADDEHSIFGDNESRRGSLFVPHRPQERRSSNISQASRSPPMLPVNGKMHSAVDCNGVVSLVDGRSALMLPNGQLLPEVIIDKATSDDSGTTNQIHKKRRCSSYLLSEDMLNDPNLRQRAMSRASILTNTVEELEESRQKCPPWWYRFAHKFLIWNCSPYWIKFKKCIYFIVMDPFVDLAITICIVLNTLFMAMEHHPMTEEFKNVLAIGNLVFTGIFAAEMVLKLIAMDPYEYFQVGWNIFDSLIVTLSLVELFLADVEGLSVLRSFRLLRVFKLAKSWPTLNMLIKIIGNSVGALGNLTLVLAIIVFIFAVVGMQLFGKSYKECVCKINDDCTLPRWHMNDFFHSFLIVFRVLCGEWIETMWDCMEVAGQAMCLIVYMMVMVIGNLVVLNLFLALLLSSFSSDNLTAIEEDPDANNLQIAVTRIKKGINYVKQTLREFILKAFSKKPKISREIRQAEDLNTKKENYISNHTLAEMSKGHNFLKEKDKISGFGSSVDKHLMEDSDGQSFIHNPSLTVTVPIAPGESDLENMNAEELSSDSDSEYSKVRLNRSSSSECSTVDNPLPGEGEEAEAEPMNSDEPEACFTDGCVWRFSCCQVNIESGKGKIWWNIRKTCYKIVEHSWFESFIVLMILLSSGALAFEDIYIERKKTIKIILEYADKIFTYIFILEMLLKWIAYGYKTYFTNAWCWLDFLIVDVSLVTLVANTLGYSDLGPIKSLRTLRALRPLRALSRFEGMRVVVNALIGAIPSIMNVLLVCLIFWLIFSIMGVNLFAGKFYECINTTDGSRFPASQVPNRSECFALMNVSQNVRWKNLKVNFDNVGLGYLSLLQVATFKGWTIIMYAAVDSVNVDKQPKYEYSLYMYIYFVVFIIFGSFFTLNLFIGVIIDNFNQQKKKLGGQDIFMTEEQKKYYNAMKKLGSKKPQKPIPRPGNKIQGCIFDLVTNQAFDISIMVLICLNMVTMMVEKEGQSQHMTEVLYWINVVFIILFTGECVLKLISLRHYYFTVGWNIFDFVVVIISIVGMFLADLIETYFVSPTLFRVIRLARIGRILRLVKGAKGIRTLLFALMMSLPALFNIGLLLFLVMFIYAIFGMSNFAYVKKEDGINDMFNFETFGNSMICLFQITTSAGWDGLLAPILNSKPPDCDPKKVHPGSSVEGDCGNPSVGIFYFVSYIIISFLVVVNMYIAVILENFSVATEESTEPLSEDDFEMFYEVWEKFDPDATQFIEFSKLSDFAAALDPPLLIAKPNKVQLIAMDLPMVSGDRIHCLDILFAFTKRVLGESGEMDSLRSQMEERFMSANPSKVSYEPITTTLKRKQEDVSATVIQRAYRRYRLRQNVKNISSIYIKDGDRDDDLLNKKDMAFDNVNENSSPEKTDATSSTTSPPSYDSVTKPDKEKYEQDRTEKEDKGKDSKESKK

Row | Compound | pIC50
1 | CS(=O)(=O)NC(=O)c1cc(Cl)c(COc2cnc(OCC(F)(F)C(F)(F)F)c(Cl)c2)cc1F [Example 46, 5-Chloro-4-({[5-chloro-6-(2,2,3,3,3-pentafluoropropoxy)pyridin-3-yl]oxy}methyl)-2-fluoro-N-(methylsulfonyl)benzamide] | 7.74
2 | COc1cc(COc2cnc(OCC(C)C)c(Cl)c2)ccc1C(=O)NS(C)(=O)=O [Example 47, 4-{[(5-Chloro-6-isobutoxypyridin-3-yl)oxy]methyl}-2-methoxy-N-(methylsulfonyl)benzamide] | 5.36
3 | COc1cc(COc2cnc(OC(C)C)c(Cl)c2)ccc1C(=O)NS(C)(=O)=O [Example 48, 4-{[(5-Chloro-6-isopropoxypyridin-3-yl)oxy]methyl}-2-methoxy-N-(methylsulfonyl)benzamide] | < 5.52
4 | CC(C)(Oc1ncc(OCc2cc(F)c(C(=O)NS(C)(=O)=O)cc2F)cc1Cl)C(F)(F)F [Example 49, 4-({[5-Chloro-6-(2,2,2-trifluoro-1,1-dimethylethoxy)pyridin-3-yl]oxy}methyl)-2,5-difluoro-N-(methylsulfonyl)benzamide] | 8.01
5 | CC(C)c1ncc2ncc(COc3cc(F)c(C(=O)NS(C)(=O)=O)cc3Cl)cn12 [Example 50] | < 5.52
6 | COc1ncc(COc2ccc(C(=O)NS(C)(=O)=O)cc2Cl)cc1Cl [Example 51] | 5.21
7 | CS(=O)(=O)NC(=O)c1ccc(COc2cccc3cnccc23)cc1 [Example 52] | < 5.52
8 | CS(=O)(=O)NC(=O)c1ccc(COc2ccc3ccncc3c2)cc1 [Example 53] | < 5.52
9 | CS(=O)(=O)NC(=O)c1cc(F)c(COc2cc(C(F)(F)F)c(Cl)cn2)cc1F [Example 55, 4-({[5-Chloro-4-(trifluoromethyl)pyridin-2-yl]oxy}methyl)-2,5-difluoro-N-(methylsulfonyl)benzamide] | < 6.00
10 | CS(=O)(=O)NC(=O)c1cc(F)c(COc2ccc(C(F)(F)F)cn2)cc1F [Example 56, 2,5-Difluoro-N-(methylsulfonyl)-4-({[5-(trifluoromethyl)pyridin-2-yl]oxy}methyl)benzamide] | 5.17
11 | CS(=O)(=O)NC(=O)c1cc(Cl)c(COc2cnc(C3CC3)c(C3CC3)c2)cc1F [Example 57, 5-Chloro-4-{[(5,6-dicyclopropylpyridin-3-yl)oxy]methyl}-2-fluoro-N-(methylsulfonyl)benzamide diethylamine salt.] | 6.82
12 | CC(C)Oc1ncc(OCc2cc(F)c(C(=O)NS(C)(=O)=O)cc2Cl)cn1 [Example 58, 5-Chloro-2-fluoro-4-{[(2-isopropoxypyrimidin-5-yl)oxy]methyl}-N-(methylsulfonyl)benzamide] | 5.16
13 | CS(=O)(=O)NC(=O)c1cc(Cl)c(COc2cnc(C3CC3)c(OC(F)F)c2)cc1F [Example 59, 5-Chloro-4-({[6-cyclopropyl-5-(difluoromethoxy)pyridin-3-yl]oxy}methyl)-2-fluoro-N-(methylsulfonyl)benzamide diethylamine salt] | 6.45
14 | CS(=O)(=O)NC(=O)c1cc(F)c(COc2ncc(Cl)cc2Cl)cc1F [Example 60, 4-{[(3,5-dichloropyridin-2-yl)oxy]methyl}-2,5-difluoro-N-(methylsulfonyl)benzamide] | < 5.52
15 | CS(=O)(=O)NC(=O)c1cc(F)c(COc2cc(C(F)(F)F)nc(C(F)(F)F)c2)cc1F [Example 61, 4-({[2,6-bis(trifluoromethyl)pyridin-4-yl]oxy}methyl)-2,5-difluoro-N-(methylsulfonyl)benzamide] | 5.74
16 | CS(=O)(=O)NC(=O)c1ccc(COc2cc(C(F)(F)F)c(Cl)cn2)cc1 [Example 62, 4-({[5-Chloro-4-(trifluoromethyl)pyridin-2-yl]oxy}methyl)-N-(methylsulfonyl)benzamide] | 5.47
17 | CS(=O)(=O)NC(=O)c1ccc(COc2ccc(Cl)cn2)cc1 [Example 63, 4-{[(5-Chloropyridin-2-yl)oxy]methyl}-N-(methylsulfonyl)benzamide] | 5.18
18 | CS(=O)(=O)NC(=O)c1cc(F)c(OCc2ccc(Cl)cn2)cc1F [Example 64, 4-[(5-Chloropyridin-2-yl)methoxy]-2,5-difluoro-N-(methylsulfonyl)benzamide diethylamine salt] | < 6.00
